{
  "source": "the supplement of paper PMC10307832",
  "test_in_all_cases": "relative viability (nuclei count vs DMSO), 5 days (fraction); higher = more cells survive",
  "key": {"[1]": {"compound": "CC1(C)CCC(CN2CCN(c3ccc(C(=O)NS(=O)(=O)c4ccc(NCC5CCOCC5)c([N+](=O)[O-])c4)c(Oc4cnc5[nH]ccc5c4)c3)CC2)=C(c2ccc(Cl)cc2)C1 [Venetoclax] + CS(=O)(=O)N1CCN(Cc2cc3nc(-c4cccc5[nH]ncc45)nc(N4CCOCC4)c3s2)CC1 [Pictilisib] (partner 1 µM)", "in_short": "(§1)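 Lung cancer cell lines, seeded in 1536-well plates, were treated the following day by pin tool with a single drug or with five library-drug doses (not always all listed) in √10 steps on top of a fixed anchor-drug dose. Cells were fixed and nuclei stained in one step after 5 days, and nuclei were counted. Relative viability is the nuclei count for treated wells divided by that for vehicle wells, reported as medians of duplicate plates.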"}, "[2]": {"compound": "CC1(C)CCC(CN2CCN(c3ccc(C(=O)NS(=O)(=O)c4ccc(NCC5CCOCC5)c([N+](=O)[O-])c4)c(Oc4cnc5[nH]ccc5c4)c3)CC2)=C(c2ccc(Cl)cc2)C1 [Venetoclax] + Cc1nc(NC(=O)N2CCC[C@H]2C(N)=O)sc1-c1ccnc(C(C)(C)C(F)(F)F)c1 [Alpelisib] (partner 2 µM)", "in_short": "as §1"}, "[3]": {"compound": "CC1(C)CCC(CN2CCN(c3ccc(C(=O)NS(=O)(=O)c4ccc(NCC5CCOCC5)c([N+](=O)[O-])c4)c(Oc4cnc5[nH]ccc5c4)c3)CC2)=C(c2ccc(Cl)cc2)C1 [Venetoclax]", "in_short": "(§2)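 Hoechst staining, done together with fixation and permeabilisation, marked nuclei for 4× imaging and MetaXpress counting. This followed 5 days without medium change after lung cancer cell lines, kept overnight at 37 °C in 1536-well plates, were pinned with five library-drug doses (not always all listed) spaced by √10 on vehicle-anchored plates. Viability is the ratio of treated-well to vehicle-well nuclei, expressed as a median across plates. Plates passed only at control CV below 25% with at least one doubling.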"}, "[4]": {"compound": "Cn1cnc2c(F)c(Nc3ccc(Br)cc3Cl)c(C(=O)NOCCO)cc21 [Selumetinib]", "in_short": "as §2"}},
  "data": [
    {"cell line": "UMC-11", "values": [
      {"measurement": "relative viability", "setting": "[1]; first compound 0.01 µM", "value": 0.817},
      {"measurement": "relative viability", "setting": "[1]; first compound 0.03162 µM", "value": 0.985},
      {"measurement": "relative viability", "setting": "[1]; first compound 0.1 µM", "value": 0.747},
      {"measurement": "relative viability", "setting": "[1]; first compound 0.3162 µM", "value": 0.741},
      {"measurement": "relative viability", "setting": "[1]; first compound 1 µM", "value": 0.72},
      {"measurement": "relative viability", "setting": "[2]; first compound 0.01 µM", "value": 0.924},
      {"measurement": "relative viability", "setting": "[2]; first compound 0.03162 µM", "value": 1.05},
      {"measurement": "relative viability", "setting": "[2]; first compound 0.1 µM", "value": 0.926},
      {"measurement": "relative viability", "setting": "[2]; first compound 0.3162 µM", "value": 0.923},
      {"measurement": "relative viability", "setting": "[2]; first compound 1 µM", "value": 0.915},
      {"measurement": "relative viability", "setting": "[3]; 0.01 µM", "value": 0.958},
      {"measurement": "relative viability", "setting": "[3]; 0.03162 µM", "value": 1},
      {"measurement": "relative viability", "setting": "[3]; 0.1 µM", "value": 0.901},
      {"measurement": "relative viability", "setting": "[3]; 0.3162 µM", "value": 0.944},
      {"measurement": "relative viability", "setting": "[3]; 1 µM", "value": 0.927},
      {"measurement": "relative viability", "setting": "[4]; 0.02 µM", "value": 0.936},
      {"measurement": "relative viability", "setting": "[4]; 0.06325 µM", "value": 0.909},
      {"measurement": "relative viability", "setting": "[4]; 0.2 µM", "value": 1.01},
      {"measurement": "relative viability", "setting": "[4]; 0.6325 µM", "value": 1.04}
    ]}
  ]
}
